Data from the NIST ThermoML archive (doi:10.1016/j.jct.2013.12.019).

Experiment: mn = molality of the nth substance listed, in mol/kg
Settings: 101 kPa, Liquid, Alternating current cell with electrodes

CCCCCCCCCCCC[N+](C)(C)C.[Br-] [dodecyltrimethylammonium bromide] + O
electrical conductivity [S/m]
Settings | 293.15 K | 298.15 K | 303.15 K | 308.15 K | 313.15 K
m1 = 0.0015 | 0.014 | 0.0143 | 0.0144 | 0.0153 | 0.0169
m1 = 0.003 | 0.027 | 0.0273 | 0.0278 | 0.0286 | 0.032
m1 = 0.0045 | 0.0397 | 0.0412 | 0.0413 | 0.042 | 0.0469
m1 = 0.006 | 0.0524 | 0.0535 | 0.055 | 0.0551 | 0.061
m1 = 0.0075 | 0.0645 | 0.0669 | 0.0675 | 0.068 | 0.0759
m1 = 0.009 | 0.0763 | 0.0784 | 0.0798 | 0.0808 | 0.0895
m1 = 0.0105 | 0.088 | 0.091 | 0.0908 | 0.0927 | 0.103
m1 = 0.012 | 0.0995 | 0.102 | 0.103 | 0.105 | 0.116
m1 = 0.0135 | 0.111 | 0.113 | 0.114 | 0.117 | 0.129
m1 = 0.015 | 0.121 | 0.123 | 0.126 | 0.128 | 0.137
m1 = 0.0165 | 0.13 | 0.132 | 0.132 | 0.134 | 0.144
m1 = 0.018 | 0.136 | 0.137 | 0.137 | 0.139 | 0.149
m1 = 0.0195 | 0.139 | 0.14 | 0.141 | 0.142 | 0.152
m1 = 0.021 | 0.142 | 0.142 | 0.143 | 0.145 | 0.156
m1 = 0.0225 | 0.145 | 0.145 | 0.146 | 0.148 | 0.16
m1 = 0.024 | 0.147 | 0.148 | 0.149 | 0.151 | 0.162
m1 = 0.0255 | 0.15 | 0.151 | 0.151 | 0.154 | 0.165
m1 = 0.027 | 0.153 | 0.154 | 0.154 | 0.158 | 0.168
m1 = 0.0285 | 0.156 | 0.156 | 0.156 | 0.16 | 0.171
m1 = 0.03 | 0.159 | 0.159 | 0.16 | 0.163 | 0.173
